In US12667583B2, “Method for preventing or treating a cornavirus infectious disease” (HENAN GENUINE BIOTECH CO., LTD., priority 2020, dated 2026):
“Also recorded” adds a separate entry of the source.

Experiments:
2019-nCoV (COVID-19) = experiment: Inhibitory effect against 2019-nCoV (COVID-19) viruses in Huh 7 cell model, viral RNA by qRT-PCR; assay type: cell-based; settings: for SI: CC50/EC50, Huh 7 cells; for EC50: viral RNA copies in supernatant, 48 h
Experimental: The antiviral activity assay was performed on a Huh 7 cell model. Three replicate wells were set for each assay and the assay was repeated three times in total.
1) In each well of a 24-well cell culture plate, 5×10^4 Huh 7 cells were inoculated. Under the culture conditions of 37° C. and 5% CO2, when the confluence reached 60%, 200 μL of 2019-nCoV (COVID-19) virus solution diluted with a DMEM medium containing 2% FBS were added to each well respectively according to the multiplicity of infection MOI of 0.005. After adsorption for 1 h in a 5% CO2 incubator at 37° C., the virus solution was discarded. The positive control drug and the Azvudine amine phosphate prodrug CL-236 were subjected to 2-fold dilution with a DMEM medium containing 2% FBS from the maximum non-toxic concentration, and added to the cell plate at 500 μL/well. Meanwhile, a control group (drug-free group) was set and the supernatant virus solution was collected at 48 h after infection.
2) RNA quantification of collected viruses by real-time RT-PCR (qRT-PCR):
From the collected supernatant virus solutions, 140 μL were measured separately, and subjected to RNA extraction according to the instruction of the QIAamp viral RNA mini kit. The qRT-PCR detection was carried out using the One Step TB Green PrimeScript PLUS RT-PCR Kit (Perfect Real Time), and the primers were RBD-qF1: 5′-[…]-3′ (SEQ. ID. NO. 1); and RBD-qR1:5′-[…]-3′(SEQ. ID. NO. 2).
The total volume of the reaction system was 20 μL:10 μL of 2× One Step TB Green RT-PCR Buffer 4, 1.2 μL of TaKaRa Ex Taq HS Mix, 0.4 μL of PrimeScript PLUS RTase Mix, 0.8 μL each of RBD-qF1 and RBD-qR1, 0.4 μL of ROX Reference Dye (50×), 2 μL of viral RNA, and 4.4 μL of RNase Free dH2O. The reaction parameters were as follows: reverse transcription at 42° C. for 5 min, pre-denaturation at 95° C. for 10 s, PCR for 40 cycles including denaturation at 95° C. for 10 s and annealing and extension at 60° C. for 30 s.
3) The inhibition rates of the drug at the concentrations were calculated. Inhibition rate (%)=1−viral RNA copies in experimental group/viral RNA copies in drug-free group×100%. At the same time, the median effective concentration (EC50) and therapeutic index (TI) of the drug were calculated, therapeutic index (TI)=concentration cytotoxicity 50% (CC50)/median effective concentration (EC50).

in vitro = settings: human
novel coronaviruses = experiment: in vitro antiviral activity in MRC-5 cells infected with the novel coronaviruses; assay type: cell-based; settings: MRC5
From the text: The inventors have determined the in vitro antiviral activity of Compound 1 in MRC-5 cells infected with the novel coronaviruses.

[1] = test system: novel coronavirus (COVID-19) pneumonia; experiment: Clinical trial in patients with novel coronavirus (COVID-19) pneumonia; settings: for Clinical advantage versus control (nucleic acid clearance rate, course of clearance, cure rate, course of cure): compared with the conventional treatment (Kaletra control)
AIDS = settings: as an anti-AIDS drug; cited from earlier work
[2] = Severe acute respiratory syndrome coronavirus 2, Huh 7 cells
[3] = individual patients, 10 per group, Azvudine 5 mg daily oral, Kaletra + arbidol + interferon control

Compound | SI (2019-nCoV (COVID-19)) | inhibition at 0.1 µM (2019-nCoV (COVID-19); Severe acute respiratory syndrome coronavirus 2, 0.1 uM, Huh 7 cells, MOI 0.005, 48 h after infection, read-out: Virus Inhibition Rate (%)) | inhibition at 0.4 µM (2019-nCoV (COVID-19); Severe acute respiratory syndrome coronavirus 2, 0.4 uM, Huh 7 cells, MOI 0.005, 48 h after infection, read-out: Virus Inhibition Rate (%)) | inhibition at 1.6 µM (2019-nCoV (COVID-19); Severe acute respiratory syndrome coronavirus 2, 1.6 uM, Huh 7 cells, MOI 0.005, 48 h after infection, read-out: Virus Inhibition Rate (%)) | inhibition at 6.4 µM (2019-nCoV (COVID-19); Severe acute respiratory syndrome coronavirus 2, 6.4 uM, Huh 7 cells, MOI 0.005, 48 h after infection, read-out: Virus Inhibition Rate (%)) | inhibition at 25.6 µM (2019-nCoV (COVID-19); Severe acute respiratory syndrome coronavirus 2, 25.6 uM, Huh 7 cells, MOI 0.005, 48 h after infection, read-out: Virus Inhibition Rate (%)) | inhibition at 102.4 µM (2019-nCoV (COVID-19); Severe acute respiratory syndrome coronavirus 2, 102.4 uM, Huh 7 cells, MOI 0.005, 48 h after infection, read-out: Virus Inhibition Rate (%)) | EC50 (2019-nCoV (COVID-19); [2]) | CC50 (in vitro) | EC50 (novel coronaviruses) | Clinical advantage versus control (nucleic acid clearance rate, course of clearance, cure rate, course of cure) [1] | Clinical advantage versus control (nucleic acid clearance rate, course of clearance, cure rate, course of cure) ([1]; listed as compound of formula (1)) | Drug-related toxic and side effects during the treatment ([1]; human, in vivo) | From inclusion confirmed by nucleic acid test to clearance [1, 3] | From inclusion confirmed by nucleic acid test to discharge [1, 3] | Patients discharged within 8 days ([1]; of 10 patients in the group) | Patients turned negative by the nucleic acid test ([1]; of 10 patients in the group) | Time to turn negative after start of treatment ([1]; one patient who had failed supportive treatment with Kaletra) | Safety in phase II clinical trials (AIDS)
CC(C)OC(=O)[C@H](C)NP(=O)(OCC1(N=[N+]=[N-])OC(n2ccc(N)nc2=O)C(F)C1O)Oc1ccccc1 (stereo partly shown) [CL-236] | 20.7 | 9.38% | 18.8% | 37.5% | 65.6% | 75% | 81.2% | 3.2 µM | 66.2 µM |  |  |  |  |  |  |  |  |  | 
[N-]=[N+]=NC1(CO)OC(n2ccc(N)nc2=O)C(F)C1O (stereo not shown) [Compound 1, Azvudine] |  |  |  |  |  |  |  |  |  | 25 µM | significant clinical therapeutic advantages | obvious advantages | no drug-related toxic and side effects were found | Clearance: day 4; also recorded: Clearance: day 2; also recorded: one week; also recorded: Clearance: day 3 | Discharge: day 7; also recorded: Discharge: day 6; also recorded: Discharge: day 8; also recorded: Discharge: day 5 | seven | 10 | three days | good safety
CCC(CC)COC(=O)[C@H](C)N[P@](=O)(OC[C@H]1O[C@@](C#N)(c2ccc3c(N)ncnn23)[C@H](O)[C@@H]1O)Oc1ccccc1 [Remdesivir, reference compound] | >30.0 |  |  |  |  |  |  | 1.5 µM | > 45 µM |  |  |  |  |  |  |  |  |  | 
